Assay [1] concerns the target T1, human glucocorticoid receptor (GR) complex (Homo sapiens, UniProt P04150).
T1 construct: made in house; host or cells: insect cells (baculovirus expression), used as crude lysate
T1 sequence (P04150 1-777): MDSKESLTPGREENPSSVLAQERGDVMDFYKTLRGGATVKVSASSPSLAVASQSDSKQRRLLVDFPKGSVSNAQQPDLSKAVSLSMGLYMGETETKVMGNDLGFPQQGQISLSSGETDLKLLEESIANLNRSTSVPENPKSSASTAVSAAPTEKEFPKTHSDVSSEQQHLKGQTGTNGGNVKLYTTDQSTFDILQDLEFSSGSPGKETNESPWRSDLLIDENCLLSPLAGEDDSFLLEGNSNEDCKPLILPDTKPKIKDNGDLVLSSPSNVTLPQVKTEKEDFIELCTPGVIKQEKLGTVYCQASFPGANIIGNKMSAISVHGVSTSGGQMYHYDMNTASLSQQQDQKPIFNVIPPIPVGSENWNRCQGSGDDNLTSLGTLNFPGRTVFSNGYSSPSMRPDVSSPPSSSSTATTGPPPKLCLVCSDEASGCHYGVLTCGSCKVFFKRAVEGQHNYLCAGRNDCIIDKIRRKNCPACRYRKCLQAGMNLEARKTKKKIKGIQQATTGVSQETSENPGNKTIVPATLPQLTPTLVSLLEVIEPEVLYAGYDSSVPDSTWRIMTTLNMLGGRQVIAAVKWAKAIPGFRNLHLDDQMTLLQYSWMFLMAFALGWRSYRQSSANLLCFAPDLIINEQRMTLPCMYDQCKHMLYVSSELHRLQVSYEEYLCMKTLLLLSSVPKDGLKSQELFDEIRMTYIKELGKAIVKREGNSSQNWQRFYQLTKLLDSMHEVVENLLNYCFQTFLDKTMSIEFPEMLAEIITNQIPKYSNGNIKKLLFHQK
Nature of the assay: Glucocorticoid receptor competitive binding assay (fluorescence polarization). The conditions noted are these: competition with TAMRA-labeled dexamethasone; result in words only. As for the experimental part:
Compounds of the invention were evaluated for binding to the steroid receptor by a fluorescence polarization competitive binding assay. Detailed descriptions for preparation of recombinant glucocorticoid receptor (GR) complex used in the assay is described in U.S. Patent Application Publication No. US 2003/0017503, filed May 20, 2002, and incorporated herein by reference in its entirety. Preparation of the tetramethyl rhodamine (TAMRA)-labeled dexamethasone probe was accomplished using a standard literature procedure (M. Pons et al., J. Steroid Biochem., 1985, 22, pp. 267-273).
A. Glucocorticoid Receptor Competitive Binding Assay
The affinity of the probe for the steroid receptor was then determined in a titration experiment. The fluorescence polarization value of the probe in assay buffer was measured on an SLM-8100 fluorometer using the excitation and emission maximum values described above. Aliquots of expression vector lysate were added and fluorescence polarization was measured after each addition until no further change in polarization value was observed. Non-linear least squares regression analysis was used to calculate the dissociation constant of the probe from the polarization values obtained for lysate binding to the probe.
(§1) This assay uses fluorescence polarization (FP) to quantitate the ability of test compounds to compete with tetramethyl rhodamine (TAMRA)-labeled dexamethasone for binding to a human glucocorticoid receptor (GR) complex prepared from an insect expression system. The assay buffer was: 10 mM TES, 50 mM KCl, 20 mM Na2MoO4.2H2O, 1.5 mM EDTA, 0.04% w/v CHAPS, 10% v/v glycerol, 1 mM dithiothreitol, pH 7.4. Test compounds were dissolved to 1 mM in neat DMSO and then further diluted to 10× assay concentration in assay buffer supplemented with 10% v/v DMSO. Test compounds were serially diluted at 10× assay concentrations in 10% DMSO-containing buffer in 96-well polypropylene plates. Binding reaction mixtures were prepared in 96-well black Dynex microtiter plates by sequential addition of the following assay components to each well: 15 μL of 10× test compound solution, 85 μL of GR-containing baculovirus lysate diluted 1:170 in assay buffer, and 50 μL of 15 nM TAMRA-labeled dexamethasone. Positive controls were reaction mixtures containing no test compound; negative controls (blanks) were reaction mixtures containing 0.7 μM to 2 μM dexamethasone. The binding reactions were incubated for 1 hour at room temperature and then read for fluorescence polarization in the LJL Analyst set to 550 nm excitation and 580 nm emission, with the Rhodamine 561 dichroic mirror installed. IC50 values were determined by iterative non-linear curve fitting of the FP signal data to a 4-parameter logistic equation.
For orientation: In fluorescence polarisation assays a small probe gives low polarisation when free and higher when bound to something large.

For another assay, the system named is glucocorticoid receptor. As to the kind of experiment: Glucocorticoid receptor function, one or more of the above assays (not specified which). Format: cell-based. The conditions noted are these: in one or more of the above assays; result in words only. As for the experimental part: as §1, with “Positive controls were reaction mixtures containing no test compound; negative controls (blanks) were reaction mixtures containing 0.7 μM to 2 μM dexamethasone.” left out
Dexamethasone, a synthetic ligand to the glucocorticoid receptor (GR), induces expression of aromatase in human foreskin fibroblast cells. The activity of aromatase is measured by the conversion of testosterone to estradiol in culture media.
Human foreskin fibroblast cells (ATCC Cat. No. CRL-2429, designation CCD112SK) are plated on 96 well plates at 50,000 cells per well 5 days before use, in Iscove's Modified Dulbecco's Media (GibcoBRL Life Technologies Cat No. 12440-053) supplemented with 10% charcoal filtered FBS (Clonetech Cat No. SH30068) and Gentamycin (GibcoBRL Life Technologies Cat. No. 15710-064). […] The extent of aromatase induction by test compounds is expressed as a relative percentage to dexamethasone. […]

Molecules are shown by their SMILES.

Turning to `CC1(CC(O)(Cc2ccnc3ccccc23)C(F)(F)F)CCc2ccccc21` (stereo not drawn) [1,1,1-Trifluoro-3-(1-methylindan-1-yl)-2-quinolin-4-ylmethylpropan-2-ol], in assay [1], the “activity in the GR binding assay” value is recorded as “potent activity”.
Consider `CC1(CC(O)(Cc2cc3ccccc3[nH]2)C(F)(F)F)CCOc2ccc(F)cc21` (stereo not drawn) [1,1,1-Trifluoro-3-(6-fluoro-4-methylchroman-4-yl)-2-(1H-indol-2-ylmethyl)propan-2-ol], for which the “activity as an agonist of the glucocorticoid receptor function” value in the assay on glucocorticoid receptor is “activity as an agonist”. The “activity in the GR binding assay” value in assay [1] is reported as “potent activity”.
`CC1(CC(O)(Cc2ccnc3ccccc23)C(F)(F)F)CCOc2ccc(F)cc21` (stereo not drawn) [1,1,1-Trifluoro-3-(6-fluoro-4-methylchroman-4-yl)-2-quinolin-4-ylmethylpropan-2-ol]: the “activity as an agonist of the glucocorticoid receptor function” value in the assay with glucocorticoid receptor is recorded as “activity as an agonist”.
Turning to `OC(Cc1ccnc2ccccc12)(CC1CCOc2ccc(F)cc21)C(F)(F)F` (stereo not drawn) [1,1,1-Trifluoro-3-(6-fluorochroman-4-yl)-2-quinolin-4-ylmethylpropan-2-ol], the “activity in the GR binding assay” value in assay [1] is “potent activity”.
Regarding `CC1(CC(O)(Cc2ccc(C#N)cc2Cl)C(F)(F)F)CCOc2ccc(F)cc21` (stereo not drawn) [3-Chloro-4-[3,3,3-trifluoro-2-(6-fluoro-4-methylchroman-4-ylmethyl)-2-hydroxypropyl]benzonitrile], in assay [1], the “activity in the GR binding assay” value is “potent activity”.
As for `Cc1cc(C#N)cc2[nH]c(CC(O)(CC3(C)CCOc4ccc(F)cc43)C(F)(F)F)cc12` (stereo not drawn) [4-Methyl-2-[3,3,3-trifluoro-2-(6-fluoro-4-methylchroman-4-ylmethyl)-2-hydroxypropyl]-1H-indole-6-carbonitrile], the “activity as an agonist of the glucocorticoid receptor function” value in the assay on glucocorticoid receptor was “activity as an agonist”. Further, the “activity in the GR binding assay” value in assay [1] is given as “potent activity”.
Regarding `Cc1cc(C#N)cc2[nH]c(CC(O)(CC3(C)CCOc4ccc(S(C)(=O)=O)cc43)C(F)(F)F)cc12` (stereo not drawn) [4-Methyl-2-[3,3,3-trifluoro-2-hydroxy-2-(6-methanesulfonyl-4-methylchroman-4-ylmethyl)propyl]-1H-indole-6-carbonitrile], in assay [1], the “activity in the GR binding assay” value is recorded as “potent activity”.
